According to PMC11267380, “USP25 Elevates SHLD2‐Mediated DNA Double‐Strand Break Repair and Regulates Chemoresponse in Cancer” (Advanced Science, 2024):
Values belong to the molecule of their own block, whether it stands above or below them.

How the values were obtained:
HR = HR reporter assay, cells treated with AZ1; type: cell-based; conditions: compared with USP25 depletion (increased HR); Figure S1i
NHEJ = NHEJ reporter assay, cells treated with AZ1; type: cell-based; conditions: compared with USP25 depletion (decreased NHEJ); Figure S1h
[1] = system: RPA32 phosphorylation of Ser4/Ser8 in HEK293T cells; experiment: RPA32 phosphorylation immunoblot after etoposide, USP25-depleted cells; type: cell-based; conditions: HEK293T stably expressing control or USP25 shRNA, Figure S2a
Experimental: a) HEK293T cells stably expressing control or USP25 shRNA were untreated and treaded with etopside at the indicated time point. Cells were lysed and lysates was performed with the indicated antibodies. b-c) Representative foci images and quantification of RPA32 (b) and RAD51 (c) were obtained in U2OS cells stably expressing control or USP25 shRNA with or without IR treatment (2Gy). n>80 in each group. d) USP25 was knocked down in ER-AsiSI U2OS cells by shRNA, and cell lysates were analyzed using the indicated antibodies. e) Schematic representation of Taqman qPCR primer design for measurement of DSB% at AsiSI sites located on chromosome1(Chr.1). The primer pairs of DNA resection are across BamHI restriction sites are marked by red arrows. ER-AsiSI U2OS cells stably expressing control and USP25 shRNA were treated with 300 nM 4- hydroxytamoxifen (4-OHT) for 4 h or mock treated and genomic DNA was then extracted and digested with BamHI overnight. The percentages of ssDNA at various distances (364nt, 1754nt and 3564nt) were measured by qPCR. f-h) Control and USP25 knockdown RKO cells transfected short interfering RNAs (siRNA) against SHLD2 were subjected to survival assays for CCK8 assay in response to IR (0, 1,1.5,2,2.5,3Gy), 5-Fu (0, 0.1,0.5,1,3µM) or cisplatin(0, 0.1,0.5,1,2,5µM). […]

RKO cells = experiment: CCK8 survival assay, control, USP25 knockdown and SHLD2-depleted RKO cells; type: cell-based; conditions: 5-Fu (0, 0.1, 0.5, 1, 3 µM) or cisplatin (0, 0.1, 0.5, 1, 2, 5 µM)
Experimental: For long‐term proliferation, cells were seeded in triplicate in each well of 96‐well plates at a density of 1000 cells per well. After 24 h of culture, the cells were treated with the indicated doses of regents or peptides and incubated at 37 °C for 72 h. Subsequently, the medium was changed to a fresh medium containing cell counting kit‐8 solution (Dojindo, CK04), and the cells were placed in the incubator for an additional 1–2 h. The absorbance was measured at 450 nm using the SpectraMax M5 reader (Molecular Devices).
a) HEK293T cells stably expressing control or USP25 shRNA were untreated and treaded with etopside at the indicated time point. Cells were lysed and lysates was performed with the indicated antibodies. b-c) Representative foci images and quantification of RPA32 (b) and RAD51 (c) were obtained in U2OS cells stably expressing control or USP25 shRNA with or without IR treatment (2Gy). n>80 in each group. d) USP25 was knocked down in ER-AsiSI U2OS cells by shRNA, and cell lysates were analyzed using the indicated antibodies. e) Schematic representation of Taqman qPCR primer design for measurement of DSB% at AsiSI sites located on chromosome1(Chr.1). The primer pairs of DNA resection are across BamHI restriction sites are marked by red arrows. ER-AsiSI U2OS cells stably expressing control and USP25 shRNA were treated with 300 nM 4- hydroxytamoxifen (4-OHT) for 4 h or mock treated and genomic DNA was then extracted and digested with BamHI overnight. The percentages of ssDNA at various distances (364nt, 1754nt and 3564nt) were measured by qPCR. f-h) Control and USP25 knockdown RKO cells transfected short interfering RNAs (siRNA) against SHLD2 were subjected to survival assays for CCK8 assay in response to IR (0, 1,1.5,2,2.5,3Gy), 5-Fu (0, 0.1,0.5,1,3µM) or cisplatin(0, 0.1,0.5,1,2,5µM). Statistical analysis was performed using two-way ANOVA followed by a Turkey’s multiple comparison test (b,c,e,f,g,h) .

RKO and SW620 cells = experiment: CCK8 survival assay, USP25 knockdown USP25-high colon cancer cells; type: cell-based; conditions: RKO: cisplatin (0, 0.5, 1, 3 µM), 5-Fu (0, 0.1, 0.5, 1, 3 µM), SW620: 5-Fu (0, 0.1, 0.5, 1, 3 µM), 72 h
Experimental: For long-term proliferation, cells were seeded in triplicate in each well of 96-well plates at a density of 1000 cells per well. After 24 h of culture, the cells were treated with the indicated doses of regents or peptides and incubated at 37 °C for 72 h. Subsequently, the medium was changed to a fresh medium containing cell counting kit-8 solution (Dojindo, CK04), and the cells were placed in the incubator for an additional 1-2 h. […] a) The mRNA expression levels of TRIM25, HECTD3, NEDD4L and WWP2 in human normal colon tissue samples (n=41) and colorectal adenocarcinoma tissue samples (n=286 COAD patients) from the Ualcan database were analyzed. b) The protein expression levels of USP25 were measured in HEK293T cells that stably expressed TRIM25 shRNA. c) NHEJ repair capacity of control or TRIM25 knockdown cells were subjected using a reporter assay. d-g) Immunoblot of USP25 in the RKO cells stably expressing control and USP25 shRNA. […] Statistical analysis was performed using t-test (a) or one-way ANOVA followed by a Turkey's multiple comparison test (c) or two-way ANOVA followed by a Turkey's multiple comparison test ([…]) .

USP25 = molecular target: T1, USP25 (Homo sapiens, UniProt Q9UHP3); experiment: Surface Plasmon Resonance (SPR) analysis of peptide binding; conditions: result in words; for binding affinity for USP25: Figure 7a, Figure S7a-c
T1 sequence (Q9UHP3 1-1055): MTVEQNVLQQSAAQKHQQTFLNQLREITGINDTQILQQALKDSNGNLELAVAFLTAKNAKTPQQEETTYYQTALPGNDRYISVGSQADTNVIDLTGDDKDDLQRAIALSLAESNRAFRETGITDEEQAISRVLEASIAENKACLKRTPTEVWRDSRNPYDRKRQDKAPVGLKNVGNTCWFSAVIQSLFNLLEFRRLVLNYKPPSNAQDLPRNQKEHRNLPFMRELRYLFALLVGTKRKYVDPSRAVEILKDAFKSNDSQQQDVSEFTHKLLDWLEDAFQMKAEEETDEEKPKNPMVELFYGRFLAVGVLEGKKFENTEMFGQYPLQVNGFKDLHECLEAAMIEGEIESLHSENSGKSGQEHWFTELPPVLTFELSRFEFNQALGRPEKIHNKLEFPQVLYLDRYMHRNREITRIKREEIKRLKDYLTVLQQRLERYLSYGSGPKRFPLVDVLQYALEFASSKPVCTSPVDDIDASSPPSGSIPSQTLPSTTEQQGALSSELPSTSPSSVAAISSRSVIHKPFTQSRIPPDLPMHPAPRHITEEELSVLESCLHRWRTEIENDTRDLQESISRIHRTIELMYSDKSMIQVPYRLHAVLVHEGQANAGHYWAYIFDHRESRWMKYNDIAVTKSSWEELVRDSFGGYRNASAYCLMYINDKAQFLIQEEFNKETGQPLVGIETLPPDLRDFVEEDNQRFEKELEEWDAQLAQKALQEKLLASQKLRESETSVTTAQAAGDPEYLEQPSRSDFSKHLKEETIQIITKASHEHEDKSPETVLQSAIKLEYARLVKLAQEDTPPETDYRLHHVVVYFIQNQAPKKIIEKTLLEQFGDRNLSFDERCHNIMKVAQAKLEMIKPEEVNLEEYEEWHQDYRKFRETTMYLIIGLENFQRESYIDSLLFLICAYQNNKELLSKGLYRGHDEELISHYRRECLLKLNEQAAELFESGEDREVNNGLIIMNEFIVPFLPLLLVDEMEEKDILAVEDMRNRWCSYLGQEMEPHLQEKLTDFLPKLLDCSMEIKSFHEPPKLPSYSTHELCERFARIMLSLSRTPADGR
Experimental: Figure 7 Disturbing the USP25 and SHLD2 interaction counteracts colon cancer progression. a) The kinetic interaction of SH‐4 and USP25 was assessed using surface plasmon resonance (SPR) analyses. b) Co‐immunoprecipitation assays (Co‐IP) were performed to detect the interaction between USP25 and SHLD2 in HEK293T cells treated with indicated peptides. c) NHEJ repair capacity of HEK293T cells treated with indicated peptides was subjected using a reporter assay. d) Representative micrographs of GFP‐SHLD2 foci and e) quantification were shown following irradiation and indicated peptide treatment. Cells were stained with anti‐GFP antibodies. f) The highest‐scoring Dock model of the SH‐4 and USP25 complex is shown. Left: the surface of SH‐4 (green) and USP25 complex. Right: the 3D structure of SH‐4 (green) and USP25 complex. g) The effect of indicated peptides(20 µM) in combination with 5‐Fu (0, 0.1, 0.5, 1, 3 µM) on the chemosensitivity of SW620 cells was determined. h‐l) Xenograft tumor formation by SW620 cells in mice that were untreated or treated with PSH‐4 and 5‐Fu or each treatment alone was analyzed. A h) schematic model, i) representative tumor images, j) tumor volume over time, k) tumor weight, and l) HE or Ki67 staining assay were presented (n = 5 animals). m) A schematic model for generating patient‐derived tumor xenografts of colorectal adenocarcinoma (COAD) was provided. n) Western blots showing USP25 levels in COAD patient tumors (patients 1–3) were presented. o) Representative immunohistochemistry (IHC) micrographs showing USP25 expression in COAD patient‐derived tumors were provided. p–s) The PDX xenograft in mice that were untreated or treated with PSH‐4([…] ) and 5‐Fu ([…] ) or each treatment alone were analyzed. Representative p) tumor images, q) tumor volume over time, r) tumor weight, and s) HE or Ki67 staining assay were presented (n = 6 animals). Statistical analysis was performed using one‐way ANOVA followed by a Turkey's multiple comparison test (c,e,k,r) or two‐way ANOVA followed by a Turkey's multiple comparison test (g,j,q). TEXT PRINTED IN THE PICTURE: (a) SH-4: KD (M) 2.082*10^-5; kd (1/s) 0.00484 DOUBTS OF THE COPYIST ABOUT THIS PICTURE: SH-4, KD (M): the digits 2.082 and the exponent -5 are in small print, the 8 could be a 6 or a 3 / SH-4, kd (1/s): 0.00484 is in small print, the 8 could be a 6 or a 3
The amino acid (aa) sequences of peptides covering the SHLD2-binding region from USP25 are shown. The kinetic interaction of peptides and USP25 was determined by surface plasmon resonance (SPR) analyses.

USP25 (as used for SPR) [2] = molecular target: T2, USP25 (as used for SPR) (UniProt Q9UHP3 1-1055); experiment: SPR
T2 chain: T1 sequence (Q9UHP3 1-1055)

USP25 (as used for SPR) [3] = molecular target: T2, USP25 (as used for SPR); experiment: SPR

Molecule: OCCNCc1cc(Br)ccc1OCc1ccc(F)c(C(F)(F)F)c1 [AZ1]
HR after USP25 inhibition (HR): led to similar results as depletion of USP25 in cells
NHEJ after USP25 inhibition (NHEJ): led to similar results as depletion of USP25 in cells

Molecule: COc1cc([C@@H]2c3cc4c(cc3[C@@H](O[C@@H]3O[C@@H]5CO[C@@H](C)O[C@H]5[C@H](O)[C@H]3O)[C@H]3COC(=O)[C@H]23)OCO4)cc(OC)c1O [etoposide]
RPA32 phosphorylation of Ser4/Ser8 on USP25 depletion [1]: promoted RPA32 phosphorylation of Ser4/Ser8

Molecule: N.N.[Cl][Pt][Cl] [cisplatin]
sensitization by USP25 knockdown (RKO cells; Figure S2f-h): sensitized cells to IR, 5‐Fu, and cisplatin treatment
sensitization by USP25 knockdown in SHLD2-depleted cells (RKO cells; SHLD2 siRNA): didn't further lead cells to sensitize to these treatments
sensitization by USP25 knockdown, USP25-high cell lines (RKO and SW620 cells): sensitized the cells to IR, cisplatin, and 5‐Fu treatment

binding affinity for USP25 (USP25): showed the binding affinity for USP25
Molecule: FTEEEKYQKLLSENK [SH‐3, peptide designed based on the structure of the N‐terminus (aa 1–200) of SHLD2]

binding affinity for USP25 (USP25): showed the binding affinity for USP25
relative binding affinity for USP25 among SH-1 to SH-4 (USP25): higher affinity
Molecule: MSVADPWKKIQLLYS [SH‐1, peptide designed based on the structure of the N‐terminus (aa 1–200) of SHLD2]

binding affinity for USP25 (USP25): showed the binding affinity for USP25
Molecule: EKQHKNLENYKVPESI [SH‐2, peptide designed based on the structure of the N‐terminus (aa 1–200) of SHLD2]

binding affinity for USP25 (USP25): showed the binding affinity for USP25
relative binding affinity for USP25 among SH-1 to SH-4 (USP25): higher affinity
Molecule: KNFNTNLFQLGHKCA [SH‐4, peptide designed based on the structure of the N‐terminus (aa 1–200) of SHLD2]

koff (USP25 (as used for SPR) [2]): 0.00484 s⁻¹
Kd (USP25 (as used for SPR) [3]): 20.8 µM
Molecule: KNFNTNLFQLGHKCA [SH-4 peptide]
